Among the data in patent US6017956A, “N,N-disubstituted amic acid derivatives” (Banyu Pharmaceutical Co., Ltd., priority 1994, dated 2000) are IC50 values, retold here.

In assay [1] the target is T1, protein-farnesyl transferase (PFT) (Rattus norvegicus, UniProt Q02293+Q04631).
T1 construct: PFT derived from rat brain; from tissue; host or cells: rat brain, soluble fraction (30-50% ammonium sulfate cut, Q-Sepharose fraction)
As to the kind of experiment: Inhibitory activities against protein-farnesyl transferase. Format: biochemical. The conditions noted are these: PFT derived from rat brain; prenyl acceptor H-ras protein or biotin-added Lys-Thr-Ser-Cys-Val-Ile-Met; 37° C., 20 minutes; read-out: 50% inhibitory concentrations against PFT activities, IC50. As for the experimental part:
Inhibitory activities against protein-farnesyl transferase
PFT was separated in such a manner that a soluble fraction of rat's brain was fractionated by means of 30%-50% saturated ammonium sulfate, further dialyzed and then subjected to column chromatography by Q-cephalose™ (manufactured by Pharmacia) (Reiss et al, Cell, vol. 62, p. 81-88 (1990)).
(2) Method for measuring PFT activities
Measurement of PFT activities was conducted by using, as a prenyl acceptor, H-ras protein or a substance that biotin was added to N-terminal of a peptide corresponding to a 7 amino acid residue at C terminal of K-rasB protein (biotin-added Lys-Thr-Ser-Cys-Val-Ile-Met) and, as a prenyl doner, [^3 H]-labeled farnesylpyrophosphate (FPP) (Reiss et al, Methods: A Companion to a Methods in Enzymology, vol. 1, No. 3, p. 241-245 (1990)). […]
The enzymatic reaction product containing H-ras protein as the prenyl acceptor, was analyzed by SDS-PAGE (sodium dodecylsulfate/polyacrylamide gel electrophoresis). […]
The measurement of PFT activities using H-ras protein as the prenyl receptor, was also analyzed by a rapid separate method. […]

Assay [2] relates to farnesyl-modification of Ras protein in NIH3T3 cells transformed by activated ras gene. As to the kind of experiment: Inhibitory activities against farnesyl-modification of Ras protein in NIH3T3 cells transformed by activated ras gene. Format: cell-based. The note with it: Mus musculus, 24 hours, proportion of non-farnesyl-modified Ras protein by densitometer, read-out: 50% inhibitory concentrations against farnesyl-modification of Ras protein, IC50. As for the experimental part: PHARMACOLOGICAL TEST EXAMPLE 2
(Inhibitory Activities Against Farnesyl-Modification of Ras Protein)
Using the compounds of the present invention, inhibitory activities against farnesyl-modification of Ras protein in NIH3T3 cells transformed by activated ras gene, were measured.
The NIH3T3 cells transformed by activated ras gene, were seeded on a culture plate and cultured for 3 days. Then, a compound of the present invention in a predetermined concentration was added to the culture. In accordance with the method disclosed in J. Biol. Chem., vol. 268, p. 18415 (1993), the cells were cultured for 24 hours and then taken off from the plate, and the cells were dissolved. After centrifugal separation for 5 minutes under 12000 g, the supernatant was used as a cell extract. The cell extract was subjected to SDS polyacrylamide gel electrophoresis to separate farnesyl-modified Ras protein and non-farnesyl-modified Ras protein. The protein on the gel was transferred onto a nitrocellulose membrane, and an anti-Ras protein antibody was reacted as a probe (primary antibody reaction). An anti-primary antibody, a peroxidase inclusion (secondary antibody), was reacted, and then Ras protein was detected by a chemical fluorescence enhancing kit. The proportion of non-farnesyl-modified Ras protein was quantified by a densitometer and taken as the inhibitory activity.
The 50% inhibitory concentrations (IC50 values) of the compounds of the present invention against farnesyl-modification of Ras protein as shown in Table

As to `C[C@H]([C@H](Cc1ccc(C(=O)Nc2ccccc2)o1)c1ccc([N+](=O)[O-])cc1)N(Cc1ccc2ccccc2c1)C(=O)CC(CC(=O)O)C(=O)O` (stereo partly drawn) [Example 1, N-[(1-RS,2RS)-1-methyl-2-(4-nitrophenyl)-3-{5-(phenylcarbamoyl)-2-furyl}propyl]-N-(2-naphthylmethyl)carbamoylmethylsuccinic acid], the IC50 in assay [1] was 0.6 nM.

`C=CCOC(=O)C(CC(=O)O)=C(O)C(=O)N(Cc1ccc2ccccc2c1)[C@H](C)[C@H](Cc1ccc(C(=O)Nc2ccccc2)o1)c1ccc2c(c1)OCO2` (racemic) [Example 29, 3-allyloxycarbonyl-4-hydroxy-4-[N-[(1RS,2RS)-1-methyl-2-(3,4-methylenedioxyphenyl)-3-{5-(phenylcarbamoyl)-2-furyl}propyl]-N-(2-naphthylmethyl)carbamoyl]-3-butenoic acid]: in assay [2], the IC50 came out at 4.7 nM. For the molecule `C[C@H]([C@H](Cc1ccc(C(=O)Nc2ccccc2)o1)c1ccc([N+](=O)[O-])cc1)N(Cc1ccc2ccccc2c1)C(=O)C(O)=C(CC(=O)O)C(=O)OC(C)(C)C` (racemic) [Example 25, 3-tert-butoxycarbonyl-4-hydroxy-4-[N-[(1RS,2RS)-1-methyl-2-(4-nitrophenyl)-3-{5-(phenylcarbamoyl)-2-furyl}propyl]-N-(2-naphthylmethyl)carbamoyl]-3-butenoic acid], the IC50 in assay [2] turned out to be 21 nM. Consider `C[C@H]([C@H](Cc1cccc(C(=O)Nc2ccccc2)c1)c1ccc(Cl)cc1)N(Cc1ccc2ccccc2c1)C(=O)CC(CC(=O)O)C(=O)O` (stereo partly drawn) [Example 10, N-{(1RS,2RS)-2-(4-chlorophenyl)-1-methyl-3-(3-phenylcarbamoylphenyl)propyl}-N-(2-naphthylmethyl)carbamoylmethylsuccinic acid], for which the IC50 in assay [1] was found to be 1.8 nM. `CC(C)OC(=O)C(CCC(=O)O)=C(O)C(=O)N(Cc1ccc2ccccc2c1)[C@H](C)[C@H](Cc1ccc(C(=O)Nc2ccccc2)o1)c1ccc([N+](=O)[O-])cc1` (racemic) [Example 30, 5-hydroxy-4-isopropoxycarbonyl-5-[N-[(1RS,2RS)-1-methyl-2-(4-nitrophenyl)-3-{5-(phenylcarbamoyl)-2-furyl}propyl]-N-(2-naphthylmethyl)carbamoyl]-4-pentenoic acid]: the IC50 in assay [2] was determined as 21 nM.
